Among the data in ChEMBL document CHEMBL4130553, “Cornusides A-O, Bioactive Iridoid Glucoside Dimers from the Fruit of Cornus officinalis” (J Nat Prod, 2017) are Activity values, retold here.

The structures appear in SMILES notation.

The data set deals with HepG2. Nature of the data set: Cytotoxicity in human HepG2 cells assessed as reduction in cell viability incubated for 48 hrs by MTT assay. Type of data set: cell-based. Particulars: hepg2, 48 h.
Take `COC(=O)C1=CO[C@@H](O[C@@H]2O[C@H](CO)[C@@H](O)[C@H](O)[C@H]2O)[C@@H]2[C@H](C)[C@@H](O)C[C@H]12`: the Activity result is reported as “Non-Toxic”.

`COC(=O)C1=CO[C@@H](O[C@@H]2O[C@H](CO)[C@@H](O)[C@H](O)[C@H]2O)[C@@H]2[C@H](C)O[C@@H](OC)C[C@H]12`: the Activity entry is reported as “Non-Toxic”.

Regarding `COC(=O)C1=CO[C@@H](O[C@@H]2O[C@H](CO)[C@@H](O)[C@H](O)[C@H]2O)[C@@H]2[C@H](C)O[C@H](OC)C[C@H]12`, the Activity result is given as “Non-Toxic”.

`COC(=O)C1=CO[C@@H](O[C@@H]2O[C@H](CO)[C@@H](O)[C@H](O)[C@H]2O)[C@@H]2[C@H](C)O[C@H](O)C[C@H]12`: the Activity result is reported as “Non-Toxic”.

`COC(=O)C1=CO[C@@H](O[C@@H]2O[C@H](CO[C@@H]3C[C@@H]4C(C(=O)OC)=CO[C@@H](O[C@@H]5O[C@H](CO)[C@@H](O)[C@H](O)[C@H]5O)[C@@H]4[C@H](C)O3)[C@@H](O)[C@H](O)[C@H]2O)[C@@H]2[C@@H](C)[C@@H](O)C[C@H]12`: the Activity entry is listed as “Non-Toxic”.

Turning to `CCO[C@@H]1C[C@@H]2C(C(=O)OC)=CO[C@@H](O[C@@H]3O[C@H](CO)[C@@H](O)[C@H](O)[C@H]3O)[C@@H]2[C@H](C)O1`, the Activity entry was “Non-Toxic”.

In the case of `COC(=O)C1=CO[C@@H](O[C@@H]2O[C@H](C)[C@@H](O)[C@H](O)[C@H]2O)[C@@H]2[C@H](C)O[C@@H](O[C@@H]3[C@@H](O)[C@H](O[C@@H]4OC=C(C(=O)OC)[C@H]5C[C@@H](OC)O[C@@H](C)[C@@H]45)O[C@H](CO)[C@H]3O)C[C@H]12`, the Activity entry is “Non-Toxic”.

As to `COC(=O)C1=CO[C@@H](O[C@@H]2O[C@H](CO)[C@@H](O)[C@H](O)[C@H]2O[C@@H]2C[C@@H]3C(C(=O)OC)=CO[C@@H](O[C@@H]4O[C@H](CO)[C@@H](O)[C@H](O)[C@H]4O)[C@@H]3[C@H](C)O2)[C@@H]2[C@@H](C)[C@@H](O)C[C@H]12`, the Activity entry is given as “Non-Toxic”.

As to `COC(=O)C1=CO[C@@H](O[C@@H]2O[C@H](C)[C@@H](O)[C@H](O)[C@H]2O)[C@@H]2[C@H](C)O[C@@H](O[C@H]3[C@H](O)[C@@H](O)[C@H](O[C@@H]4OC=C(C(=O)OC)[C@H]5C[C@H](OC)O[C@@H](C)[C@@H]45)O[C@@H]3CO)C[C@H]12`, the Activity entry is given as “Non-Toxic”.

As for `COC(=O)C1=CO[C@@H](O[C@@H]2O[C@H](CO)[C@@H](O)[C@H](O)[C@H]2O)[C@@H]2[C@H](C)O[C@H](O[C@H]3[C@H](O[C@@H]4OC=C(C(=O)OC)[C@H]5C[C@H](OC)O[C@@H](C)[C@@H]45)O[C@H](CO)[C@@H](O)[C@@H]3O)C[C@H]12`, the Activity entry is “Non-Toxic”.

Regarding `COC(=O)C1=CO[C@@H](O[C@@H]2O[C@H](CO)[C@@H](O)[C@H](O)[C@H]2O)[C@@H]2[C@@H](C)[C@@H](O[C@H]3C[C@@H]4C(C(=O)OC)=CO[C@@H](O[C@@H]5O[C@H](CO)[C@@H](O)[C@H](O)[C@H]5O)[C@@H]4[C@@H](C)O3)C[C@H]12`, the Activity entry is on record as “Non-Toxic”.

As to `CCO[C@H]1C[C@@H]2C(C(=O)OC)=CO[C@@H](O[C@@H]3O[C@H](CO)[C@@H](O)[C@H](O)[C@H]3O)[C@@H]2[C@H](C)O1`, the Activity result is recorded as “Non-Toxic”.

For `COC(=O)C1=CO[C@@H](O[C@@H]2O[C@H](CO[C@@H]3C[C@@H]4C(C(=O)OC)=CO[C@@H](O[C@@H]5O[C@H](CO)[C@@H](O)[C@H](O)[C@H]5O)[C@@H]4[C@H](C)O3)[C@@H](O)[C@H](O)[C@H]2O)[C@@H]2[C@H](C)O[C@H](OC)C[C@H]12`, the Activity entry is reported as “Non-Toxic”.

As for `COC(=O)C1=CO[C@@H](O[C@@H]2O[C@H](CO)[C@@H](O)[C@H](O)[C@H]2O)[C@@H]2[C@H](C)O[C@@H](O[C@H]3[C@H](O[C@@H]4OC=C(C(=O)OC)[C@H]5C[C@H](OC)O[C@@H](C)[C@@H]45)O[C@H](CO)[C@@H](O)[C@@H]3O)C[C@H]12`, the Activity result is given as “Non-Toxic”.

For `CCO[C@@H]1C[C@@H]2C(C(=O)OC)=CO[C@@H](O[C@@H]3O[C@H](CO[C@H]4C[C@@H]5C(C(=O)OC)=CO[C@@H](O[C@@H]6O[C@H](CO)[C@@H](O)[C@H](O)[C@H]6O)[C@@H]5[C@H](C)O4)[C@@H](O)[C@H](O)[C@H]3O)[C@@H]2[C@H](C)O1`, the Activity result was “Non-Toxic”.

For the molecule `COC(=O)C1=CO[C@@H](O[C@@H]2O[C@H](CO)[C@@H](O)[C@H](O)[C@H]2O)[C@@H]2[C@H](C)O[C@@H](OC[C@H]3O[C@@H](O[C@@H]4OC=C(C(=O)OC)[C@H]5C[C@@H](OC)O[C@@H](C)[C@@H]45)[C@H](O)[C@@H](O)[C@@H]3O)C[C@H]12`, the Activity entry is “Non-Toxic”.

On to `COC(=O)C1=CO[C@@H](O[C@@H]2O[C@H](CO[C@@H]3C[C@@H]4C(C(=O)OC)=CO[C@@H](O[C@@H]5O[C@H](CO)[C@@H](O)[C@H](O)[C@H]5O)[C@@H]4[C@H](C)O3)[C@@H](O)[C@H](O)[C@H]2O)[C@@H]2[C@H](C)O[C@@H](OC)C[C@H]12`, for which the Activity result was “Non-Toxic”.

Turning to `COC(=O)C1=CO[C@@H](O[C@@H]2O[C@H](CO)[C@@H](O[C@H]3C[C@@H]4C(C(=O)OC)=CO[C@@H](O[C@@H]5O[C@H](C)[C@@H](O)[C@H](O)[C@H]5O)[C@@H]4[C@H](C)O3)[C@H](O)[C@H]2O)[C@@H]2[C@@H](C)[C@@H](O)C[C@H]12`, the Activity entry is recorded as “Non-Toxic”.

For the molecule `COC(=O)C1=CO[C@@H](O[C@@H]2O[C@H](C)[C@@H](O)[C@H](O)[C@H]2O)[C@@H]2[C@H](C)O[C@@H](O[C@@H]3[C@@H](O)[C@H](O[C@@H]4OC=C(C(=O)OC)[C@H]5C[C@H](OC)O[C@@H](C)[C@@H]45)O[C@H](CO)[C@H]3O)C[C@H]12`, the Activity entry is “Non-Toxic”.

`COC(=O)C1=CO[C@@H](O[C@@H]2O[C@H](CO)[C@@H](O)[C@H](O)[C@H]2O)[C@@H]2[C@H](C)O[C@H](O[C@H]3[C@H](O[C@@H]4OC=C(C(=O)OC)[C@H]5C[C@@H](OC)O[C@@H](C)[C@@H]45)O[C@H](CO)[C@@H](O)[C@@H]3O)C[C@H]12`: the Activity entry was “Non-Toxic”.

`COC(=O)C1=CO[C@@H](O[C@@H]2O[C@H](CO[C@H]3C[C@@H]4C(C(=O)OC)=CO[C@@H](O[C@@H]5O[C@H](CO)[C@@H](O)[C@H](O)[C@H]5O)[C@@H]4[C@H](C)O3)[C@@H](O)[C@H](O)[C@H]2O)[C@@H]2[C@H](C)O[C@@H](OC)C[C@H]12`: the Activity entry was “Non-Toxic”.

With `CCO[C@H]1C[C@@H]2C(C(=O)OC)=CO[C@@H](O[C@@H]3O[C@H](CO[C@H]4C[C@@H]5C(C(=O)OC)=CO[C@@H](O[C@@H]6O[C@H](CO)[C@@H](O)[C@H](O)[C@H]6O)[C@@H]5[C@H](C)O4)[C@@H](O)[C@H](O)[C@H]3O)[C@@H]2[C@H](C)O1`, the Activity result is “Non-Toxic”.

For the molecule `COC(=O)C1=CO[C@@H](O[C@@H]2O[C@H](CO)[C@@H](O)[C@H](O)[C@H]2O)[C@@H]2[C@@H](C)[C@@H](O)C[C@H]12` [LOGANIN], the Activity entry was “Non-Toxic”.

As for `COC(=O)C1=CO[C@@H](O[C@@H]2O[C@H](CO)[C@@H](O)[C@H](O)[C@H]2O)[C@@H]2[C@H](C)O[C@@H](O)C[C@H]12` [MORRONISIDE], the Activity entry is recorded as “Non-Toxic”.

Regarding `C=C[C@H]1[C@H](O[C@@H]2O[C@H](CO)[C@@H](O)[C@H](O)[C@H]2O)OC=C2C(=O)OCC[C@H]21` [SWEROSIDE], the Activity entry is recorded as “Non-Toxic”.
